The data set can be described thus: Accelerated heat-treatment test for browning (Experiment 4). It counts as physicochemical. Particulars: 150 mg heated at 80° C. for three days, dissolved in 3 ml water, absorbance at 400 nm. The source says: Accordingly, in this experiment, Test samples 1 and 12 to 16, which had been used in the antecedent Experiments, were examined for the relationship between the coloration and the total content of L-ascorbic acid plus D-glucose, the content of L-ascorbic acid, or the reducing power of the whole particulate composition by conducting an accelerated test on heat treatment according to the following procedures:
One hundred and fifty milligrams of each of the test samples was weighed and placed in a 10-ml test tube with a screw cap, and the test tubes in a closed condition of their opening parts with the screw caps were placed in “DRYING-OVEN SA310”, a product name of an oven commercialized by Masuda Corp., Osaka, Japan, and heated at 80° C. for three days. […] The resulting solutions were measured for absorbance at a wavelength of 400 nm using “UV-2400PC”, a product name of a spectrophotometer commercialized by Shimadzu Corp., Kyoto, Japan. The degree of coloration caused by heating was judged based on the following two criteria: When the absorbance at a wavelength of 400 nm is less than 0.50, it is judged as “Not browned or substantially not browned” (−); and when the absorbance at a wavelength of 400 nm is 0.50 or higher, it is judged as “Browned” (+).

As for `O=C1O[C@H]([C@@H](O)CO)C(O)=C1O[C@H]1O[C@H](CO)[C@@H](O)[C@H](O)[C@H]1O` [Test sample 16, 2-O-α-D-glucosyl-L-ascorbic acid], the Browning property result is listed as “+ (when the absorbance at a wavelength of 400 nm is 0.50 or higher, it is judged as “Browned” (+))”.

These data come from US9265781B2, “Process for producing a particulate composition comprising anhydrous crystalline 2-O-alpha-D-glucosyl-L-ascorbic acid” (HAYASHIBARA CO., LTD., priority 2009, dated 2016).
